The assay deals with Glycogen synthase kinase-3 beta (Oryctolagus cuniculus). Briefly: Inhibitory concentration against rabbit glycogen synthase kinase-3 beta using protein phosphatase inhibitor-2 as substrate.

pIC50: −log10 of the molar value.

Drawing on BindingDB's records for doi:10.1016/j.bmcl.2004.03.090 (Johnson & Johnson Pharmaceutical Research & Development, 2004), this text covers IC50 for 7 molecules.

In general, pIC50 refers to the negative decadic logarithm of the IC50, by convention in mol/L. Low values mean a large IC50, high ones a small IC50.

In the case of `CCn1cc(C2=C(c3cn(CCCO)c4ncccc34)C(=O)NC2=O)c2cccnc21` [3-(1-Ethyl-1H-pyrrolo[2,3-b]pyridin-3-yl)-4-[1-(3-hydroxy-propyl)-1H-pyrrolo[2,3-b]pyridin-3-yl]-pyrrole-2,5-dione], the pIC50 is 7.19.
Consider `O=C1NC(=O)C(c2cn(CCCO)c3ncccc23)=C1c1ccc(F)cc1Cl` [3-(2-Chloro-4-fluoro-phenyl)-4-[1-(3-hydroxy-propyl)-1H-pyrrolo[2,3-b]pyridin-3-yl]-pyrrole-2,5-dione], for which the pIC50 is 8.22.
The molecule `COc1ccccc1C1=C(c2cn(CCCNS(N)(=O)=O)c3ncccc23)C(=O)NC1=O` [3-(7-Azaindolyl)-4-arylmaleimide analogue] showed a pIC50 of 7.70.
Molecule `O=C1NC(=O)C(c2cn(CCCO)c3ncccc23)=C1c1cccc2ccccc12` [3-[1-(3-Hydroxy-propyl)-1H-pyrrolo[2,3-b]pyridin-3-yl]-4-naphthalen-1-yl-pyrrole-2,5-dione] gave a pIC50 of 7.51.
Then `O=C1NC(=O)C(c2cn(CCCO)c3ncccc23)=C1c1ccccn1` [3-[1-(3-Hydroxy-propyl)-1H-pyrrolo[2,3-b]pyridin-3-yl]-4-pyridin-2-yl-pyrrole-2,5-dione], with 6.32; and `COc1ccccc1C1=C(c2cn(CCCNC=O)c3ncccc23)C(=O)NC1=O` [N-(3-{3-[4-(2-Methoxy-phenyl)-2,5-dioxo-2,5-dihydro-1H-pyrrol-3-yl]-pyrrolo[2,3-b]pyridin-1-yl}-propyl)-formamide], with 8.10.
In turn, `COc1ccccc1C1=C(c2cn(CCCNS(C)(=O)=O)c3ncccc23)C(=O)NC1=O` [N-(3-{3-[4-(2-Methoxy-phenyl)-2,5-dioxo-2,5-dihydro-1H-pyrrol-3-yl]-pyrrolo[2,3-b]pyridin-1-yl}-propyl)-methanesulfonamide] had a negative logarithm of the IC50 (pIC50) of 7.85.
